Our source for the IC50, Activity and viability values is ChEMBL document CHEMBL3120064, “Synthesis and biological evaluation of baicalein derivatives as potent antitumor agents” (Bioorg Med Chem Lett, 2014).

Assay [1] is described as follows: Antiproliferative activity against human BCG823 cells after 48 hrs by MTT assay. Type of assay: functional, cell-based. The following applies: BCG823, 48 h.
Assay [2] relates to HepG2. Briefly: Antiproliferative activity against human HepG2 cells after 48 hrs by MTT assay. The note with it: HepG2, 48 h. Type of assay: functional, cell-based.
Another assay concerns A549. In words: Antiproliferative activity against human A549 cells after 48 hrs by MTT assay. The following applies: A549, 48 h. Type of assay: functional, cell-based.
For assay [3], the system named is HepG2. Briefly: Induction of apoptosis in human HepG2 cells assessed as late apoptotic cells at 3 uM after 72 hrs by annexin V and propidium iodide staining-based flow cytometric analysis (reference value: 1.4 %). Type of assay: functional.
Assay [4] deals with HepG2. Briefly: Induction of apoptosis in human HepG2 cells assessed as viable cells at 0.75 uM after 72 hrs by annexin V and propidium iodide staining-based flow cytometric analysis (reference value: 94.5 +/- 0.6%). Type of assay: functional. The following applies: HepG2, 72 h, read-out: Activity.
Assay [5] concerns HepG2. Briefly: Induction of apoptosis in human HepG2 cells assessed as late apoptotic cells at 1.5 uM after 72 hrs by annexin V and propidium iodide staining-based flow cytometric analysis (reference value: 1.4 %). Type of assay: functional.
In assay [6] the test system is HepG2. Briefly: Induction of apoptosis in human HepG2 cells assessed as early apoptotic cells at 0.75 uM after 72 hrs by annexin V and propidium iodide staining-based flow cytometric analysis (reference value: 1.4 +/- 0.1%). Type of assay: functional.
For assay [7], the system named is HepG2. In words: Induction of apoptosis in human HepG2 cells assessed as necrotic cells at 1.5 uM after 72 hrs by annexin V and propidium iodide staining-based flow cytometric analysis (reference value: 2.7 +/- 0.1%). Type of assay: functional.
Assay [8] deals with HepG2. Briefly: Induction of apoptosis in human HepG2 cells assessed as necrotic cells at 3 uM after 72 hrs by annexin V and propidium iodide staining-based flow cytometric analysis (reference value: 2.7 +/- 0.1%). Type of assay: functional.
Assay [9] deals with HepG2. In words: Induction of apoptosis in human HepG2 cells assessed as chromatin condensation at 0.75 to 3 uM after 72 hrs by DAPI staining-based fluorescent microscopic analysis. Type of assay: functional, cell-based.
Assay [10] deals with HepG2. In words: Induction of apoptosis in human HepG2 cells assessed as necrotic cells at 0.75 uM after 72 hrs by annexin V and propidium iodide staining-based flow cytometric analysis (reference value: 2.7 +/- 0.1%). Type of assay: functional.
Assay [11] concerns HepG2. Briefly: Induction of apoptosis in human HepG2 cells assessed as karyopyknosis at 0.75 to 3 uM after 72 hrs by DAPI staining-based fluorescent microscopic analysis. Type of assay: functional, cell-based.
The subject of assay [12] is HepG2. Briefly: Induction of apoptosis in human HepG2 cells assessed as late apoptotic cells at 0.75 uM after 72 hrs by annexin V and propidium iodide staining-based flow cytometric analysis (reference value: 1.4 %). Type of assay: functional.
The test system of assay [13] is HepG2. In words: Induction of apoptosis in human HepG2 cells assessed as viable cells at 1.5 uM after 72 hrs by annexin V and propidium iodide staining-based flow cytometric analysis (reference value: 94.5 +/- 0.6%). The note with it: HepG2, 72 h, read-out: Activity. Type of assay: functional.
The subject of assay [14] is HepG2. In words: Induction of apoptosis in human HepG2 cells assessed as early apoptotic cells at 3 uM after 72 hrs by annexin V and propidium iodide staining-based flow cytometric analysis (reference value: 1.4 +/- 0.1%). Type of assay: functional.
Assay [15] concerns HepG2. Briefly: Induction of apoptosis in human HepG2 cells assessed as early apoptotic cells at 1.5 uM after 72 hrs by annexin V and propidium iodide staining-based flow cytometric analysis (reference value: 1.4 +/- 0.1%). Type of assay: functional.
Assay [16] deals with HepG2. In words: Induction of apoptosis in human HepG2 cells assessed as viable cells at 3 uM after 72 hrs by annexin V and propidium iodide staining-based flow cytometric analysis (reference value: 94.5 +/- 0.6%). Type of assay: functional. The following applies: HepG2, 72 h, read-out: Activity.

The source made the active and inactive calls. The calls are words filed in the database; no cut-off is given here.

`O=c1cc(-c2ccccc2)oc2cc(OCc3ccccc3)c(OCCCCN3CCOCC3)c(O)c12`: the IC50 was 83.6 µM in assay [1], more than 100 µM in the assay with HepG2 [2] and more than 100 µM with A549.
Regarding `O=c1cc(-c2ccccc2)oc2cc(OCc3ccccc3)c(OCCCCN3CCCCC3)c(O)c12`, the IC50 worked out at 3 µM in [1], 2.4 µM with HepG2 [2] and 1.9 µM in the assay on A549.
Take `O=c1cc(-c2ccccc2)oc2cc(OCc3ccccc3)c(OCCCN3CCCC3)c(O)c12`: the results for the IC50 (in assay [1]; with HepG2 [2]; with A549) were more than 100 µM, 4.2 µM and 1.4 µM, respectively.
With `COc1cc2oc(-c3ccccc3)cc(=O)c2c2c1OCCCO2`, the IC50 in assay [1] was more than 100 µM; with HepG2 [2], 69 µM; in the assay on A549, 51.3 µM.
Regarding `CN1CCN(CCCOc2c(OCc3ccccc3)cc3oc(-c4ccccc4)cc(=O)c3c2O)CC1`, the IC50 in assay [1] came out at 4.1 µM; with HepG2 [2], 2.4 µM; in the assay with A549 it was 1.3 µM.
For `O=c1cc(-c2ccccc2)oc2cc(O)c(OCCCCN3CCCCC3)c(O)c12`, the IC50 in [1] was 52.7 µM; in the assay with HepG2 [2], more than 100 µM; in the assay on A549 it was 75 µM.
Taken in the same sequence, the figures for `COc1cc2oc(-c3ccccc3)cc(=O)c2c(O)c1OCCCN1CCOCC1` were 43.1 µM, 9.2 µM and 14 µM.
The corresponding values for `COc1cc2oc(-c3ccccc3)cc(=O)c2c(O)c1OCCCCN1CCN(C)CC1` are 53.5 µM, 36.7 µM and 32 µM.
In the case of `CCN(CC)CCCOc1c(OC)cc2oc(-c3ccccc3)cc(=O)c2c1O`, the concentration for half-maximal inhibition (IC50) was 5.7 µM in [1], 3.7 µM in the assay on HepG2 [2] and 4.9 µM in the assay on A549.
The corresponding values for `COc1cc2oc(-c3ccccc3)cc(=O)c2c(O)c1OCCCN1CCCCC1` are 25.3 µM, 22.3 µM and 17 µM.
For the compound `O=c1cc(-c2ccccc2)oc2cc(OCc3ccccc3)c(OCCCCN3CCCC3)c(O)c12`, the Activity is given as 50.6% in the assay with HepG2 [3]; 6.3% in the assay with HepG2 [5]; 3.2% in the assay with HepG2 [6]; 11.1% in the assay on HepG2 [7]; 8.3% in the assay with HepG2 [8]; 5.2% in the assay with HepG2 [10]. For the same compound, the Activity was 2.2% in the assay with HepG2 [12], 30% with HepG2 [14] and 5.1% in the assay on HepG2 [15]. In the assay with HepG2 [4], the viability at 0.75 µM worked out at 89.5%. Further, the values for the IC50 (in assay [1]; with HepG2 [2]; with A549) were 3.2 µM, 2 µM and 0.8 µM, respectively. For the same compound, the outcome in the assay with HepG2 [9] and with HepG2 [11] was Active. Also, the viability at 1.5 µM in the assay with HepG2 [13] worked out at 77.5%. Further, the viability at 3 µM in the assay on HepG2 [16] came to 11.1%.
For the compound `O=c1cc(-c2ccccc2)oc2cc(OCc3ccccc3)c(OCCCN3CCCCC3)c(O)c12`, the IC50 in [1] worked out at 4.6 µM; in the assay on HepG2 [2], 2.2 µM; with A549 it was 3.1 µM.
The corresponding values for `O=c1cc(-c2ccccc2)oc2cc(O)c(OCCCCN3CCOCC3)c(O)c12` are 58.7 µM, 67.2 µM and more than 100 µM.
With `CCN(CC)CCCCOc1c(OC)cc2oc(-c3ccccc3)cc(=O)c2c1O`, the IC50 worked out at 17.4 µM in assay [1], 7.1 µM in the assay with HepG2 [2] and 35 µM in the assay with A549.
The corresponding values for `CN1CCN(CCCCOc2c(O)cc3oc(-c4ccccc4)cc(=O)c3c2O)CC1` are 82.9 µM, 93.7 µM and more than 100 µM.
The corresponding values for `O=c1cc(-c2ccccc2)oc2cc(O)c(OCCCN3CCCCC3)c(O)c12` are 60.9 µM, 70.6 µM and more than 100 µM.
The corresponding values for `CN1CCN(CCCCOc2c(OCc3ccccc3)cc3oc(-c4ccccc4)cc(=O)c3c2O)CC1` are 7.2 µM, 2.5 µM and 4.4 µM.
For the compound `COc1cc2oc(-c3ccccc3)cc(=O)c2c(O)c1OCCCCN1CCOCC1`, the IC50 in [1] amounted to 27.2 µM; with HepG2 [2], 19.8 µM; with A549, 25 µM.
Taken in the same sequence, the figures for `O=c1cc(-c2ccccc2)oc2cc(O)c(OCCCN3CCCC3)c(O)c12` were more than 100 µM, more than 100 µM and more than 100 µM.
Taken in the same sequence, the figures for `COc1cc2oc(-c3ccccc3)cc(=O)c2c(O)c1OCCCN1CCCC1` were 6.5 µM, 4.3 µM and 6 µM.
With `CCN(CC)CCCCOc1c(OCc2ccccc2)cc2oc(-c3ccccc3)cc(=O)c2c1O`, the IC50 in [1] came out at 4.2 µM; in the assay on HepG2 [2], 2.2 µM; in the assay on A549, 1.8 µM.
The corresponding values for `O=c1cc(-c2ccccc2)oc2cc(O)c(OCCCCN3CCCC3)c(O)c12` are 86.4 µM, more than 100 µM and 51 µM.
For `COc1cc2oc(-c3ccccc3)cc(=O)c2c(O)c1OCCCCN1CCCCC1`, the IC50 stood at 21.9 µM in assay [1], 21 µM in the assay on HepG2 [2] and 34 µM in the assay with A549.
Taken in the same sequence, the figures for `O=c1cc(-c2ccccc2)oc2cc(O)c(OCCCN3CCOCC3)c(O)c12` were 88.3 µM, 86.2 µM and more than 100 µM.
Turning to `O=c1cc(-c2ccccc2)oc2cc(O)c(O)c(O)c12` [BAICALEIN], the IC50 in assay [1] was found to be 19.1 µM; with HepG2 [2] it was 28.3 µM; with A549 it was 13 µM.
Take `COc1cc2oc(-c3ccccc3)cc(=O)c2c(O)c1OCCCCN1CCCC1`: the IC50 amounted to 10.6 µM in [1], 4.9 µM with HepG2 [2] and 13 µM in the assay with A549.
Consider `COc1cc2oc(-c3ccccc3)cc(=O)c2c2c1OCCCCO2`, for which the IC50 (in assay [1]; in the assay on HepG2 [2]; in the assay with A549) was more than 100 µM each time.
On to `COc1cc2oc(-c3ccccc3)cc(=O)c2c(O)c1OCCCN1CCN(C)CC1`, for which the IC50 in assay [1] was 31.3 µM; with HepG2 [2], 15.1 µM; in the assay with A549 it was 18 µM.
Consider `O=c1cc(-c2ccccc2)oc2cc(OCc3ccccc3)c(OCCCN3CCOCC3)c(O)c12`, for which the IC50 was 51.4 µM in assay [1], 75.8 µM in the assay with HepG2 [2] and more than 100 µM with A549.
As to `CN(C)CCCOc1c(OCc2ccccc2)cc2oc(-c3ccccc3)cc(=O)c2c1O`, the half-inhibitory concentration (IC50) stood at 5.5 µM in assay [1], 2.2 µM in the assay on HepG2 [2] and 2.6 µM with A549.
